Measured values: patent US7906488B2, “Sphingolipids in treatment and prevention of steatosis and of steatosis or of hepatotoxicity and its sequelae” (Nederlandse Organisatie Voor …, priority 2004, dated 2011)

Test system: APOE*3Leiden mice
Assay: Effect of dietary sphingolipids on plasma C and TG levels (0.1, 0.2, 0.4% in diet)
Format: in vivo
Conditions: 0.4% sphingolipid in diet, compared with 0.2%
Description: Sphingolipids: The three sphingolipids that represent the most abundant natural complex sphingolipid classes and the three of the simplest natural sphingolipids, the sphingoid bases that can be formed by enzymatic breakdown of complex sphingolipids in the intestine were used. Sphingomyelin (mainly N-palmitoyl-sphingosine-1-phosphocholine) from egg was obtained from Larodan Fine Chemicals (Stockholm, Sweden). Yeast-derived (semi)synthetic ceramide III (N-stearoyl-phytosphingosine), cerebroside (N-stearoyl-phytosphingosine-1-glucose) and phytosphingosine (PS) were from Cosmoferm BV (Delft, the Netherlands). Sphinganine and sphingosine were from Avanti Polar Lipids (Albaster, Ala.). Animals and diets: Heterozygous female APOE*3Leiden transgenic mice (Van Vlijmen et al. 1994. J. Clin. Invest 93:1403-1410.) (6 months old) were fed a Western-type diet (Hope Farms, Woerden, the Netherlands) containing 15% cocoa butter, 0.25% cholesterol, 1% corn oil, 40.5% sucrose, 20% acid casein, 10% corn starch and 5.95% cellulose (all w/w) for 5 weeks. The mice were allowed free access to food and water. Body weight and food intake were monitored weekly. In the first experiment (FIG. 2), the mice were randomized after these 5 weeks into 7 groups (n=6), based on plasma cholesterol, triglycerides, and body weight. Subsequently, the mice were fed for three weeks the same diet without or with 0.1% (w/w) phytosphingosine (PS), sphingosine, sphinganine, cerebroside, ceramide III, or sphingomyelin. […]
Plasma parameters: Tail blood samples were collected in EDTA-coated cups, or in paraoxon-coated capillaries to prevent lipolysis as described in Zambon et al. 1993 (Zambon et al. 1993. J. Lipid Res. 34:1021-1028). Plasma lipid parameters were determined using commercial kits for total cholesterol (C) Chol R1 from Roche Diagnostics, Mannheim, Germany), non-esterified free fatty acids (FFA) (NEFA-C; Wako chemicals, Neuss, Germany), Total triglycerides (TG) (Triglyceride GPO-Trinder; Sigma, St. Louis, Mo.), β-hydroxybutyrate (β-HB; Sigma) and ALAT (Reflotron GPT; Roche). Serum amyloid A (SAA) was measured by ELISA (Biosource, Nivelles, Belgium) and fibrinogen by sandwich ELISA, as described in Koopman et al., 2005 (Koopman et al. 2005. Fibrinol Proteol 11:19). […] Hepatic VLDL-TG production: The rate of hepatic VLDL-TG production, de novo apoB secretion, and VLDL composition were determined in overnight-fasted mice. […] After 30 min, the animals received a Triton WR1339 injection (Tyloxapol, Sigma; 500 mg/kg body weight in 100 μl saline) to prevent systemic lipolysis of newly-secreted hepatic VLDL-TG (Aalto-Setala et al. 1992. J. Clin. Invest 90:1889-1900.27) Blood samples were drawn at 0, 15, 30, 60, and 90 min after Triton WR1339 injection and plasma TG concentrations were determined. […]

Structure (SMILES): CCCCCCCCCCCCCC[C@@H](O)[C@@H](O)[C@@H](N)CO [PS, phytosphingosine]
- Plasma C: decreased even more
